Experimental findings from patent US20110060021A1 (priority 2009, published 2011) are described below.

Molecules are shown by their SMILES.

Series [1] deals with breast cancer cell line (BT-549). The series is described as follows: NCI-60 assay, BT-549 cell line. In kind it is cell-based, human.
Series [2] deals with NCI-60 cancer cell lines. Description: NCI-60 single-dose assay. In kind it is cell-based, human. The following applies: single dose 10 μM.
The test system of series [3] is CNS cancer cell line (U251). The series is described as follows: NCI-60 assay, U251 cell line. In kind it is cell-based, human.
Series [4] relates to NCI-60 cancer cell lines. The following applies: for number of cancer cell lines completely killed / number of cancer cell lines whose growth was totally inhibited / TGI50, median concentration for total growth inhibition / GI50 / CC50: five-dose assay; for number of cancer cell lines completely killed: at median LC50 or lower; for number of cancer cell lines whose growth was totally inhibited: at median TGI50 or lower; for TGI50, median concentration for total growth inhibition: 29 (A) / 28 (B) cell lines; for GI50: read-out: GI50, median concentration, all but three cancer cell lines (HCT-15, NCI/ADR-RES, CAKI-1); for CC50: read-out: LC50, median concentration, 17 (A) / 20 (B) cell lines completely killed.

The subject of series [5] is recombinant human HDAC1-4 and HDAC6-9. The series is described as follows: Histone deacetylase inhibition, two-step fluorogenic assay. In kind it is biochemical. The following applies: reduced form of the compound.
Description: TCEP, tris(2-carboxyethyl)phosphine hydrocloride used as a reducing agent.
The experiments included HDACs falling in human class I (HDACs 1, 2, 3 and 8), as well as human class II (HDACs 4, 6, 7 and 9), and the activities were determined in a two-step fluorogenic assay by the method described in (Wegener et al. Analytical biochemistry (2003) 321:202-208). All HDAC dose-response curves were bundled for each compound individually in the native/oxidized and the reduced forms. The activity of each enzyme was normalized separately. For determination of the inhibitory effect, IC50 values (in μM concentrations) were obtained through a non-linear four-parameter fit.

Turning to `CCCC[C@H]1NC(=O)C[C@H]2/C=C/CCSSC[C@@H](NC1=O)C(=O)N[C@H]([C@@H](C)CC)[C@@H](O)CC(=O)O2` [thailandepsin B], in series [1], the “sensitivity of BT-549 breast cancer cell line” value is on record as “very sensitive”. In addition, in the series with NCI-60 cancer cell lines [2], the “inhibitory activity across the 60 cancer cell lines” value is “consistently inhibitory to most but not all 60 cancer cell lines” and the “number of cell lines inhibited at the mean growth percent or more” value is recorded as 30 cell lines. Besides, in series [3], the “sensitivity of U251 CNS cancer cell line” value is on record as “very sensitive”. In the series on NCI-60 cancer cell lines [4], the “number of cancer cell lines completely killed” value came to 20 cancer cell lines; the “number of cancer cell lines whose growth was totally inhibited” value is reported as 28 cancer cell lines; the “TGI50, median concentration for total growth inhibition” value is recorded as not above 256.4 nM; the GI50 was not above 11.7 nM. Besides, the CC50 in the series on NCI-60 cancer cell lines [4] was not above 6920 nM.
On to `CC=C1NC(=O)C(CS)NC(=O)C(C(C)C)NC(=O)CC(C=CCCS)OC(=O)C(C(C)C)NC1=O` (stereo not drawn) [reduced form of FK228], for which the “HDAC inhibition ranking (order of inhibition)” value in series [5] is given as “HDAC2≧HDAC3≧HDAC1>HDAC8>HDAC4≧HDAC6>HDAC9≧HDAC7”.
Take `CC[C@H](C)[C@H]1NC(=O)[C@H]2CSSCC/C=C/[C@H](CC(=O)N[C@H](CCSC)C(=O)N2)OC(=O)C[C@@H]1O` [thailandepsin A]: in series [1], the “sensitivity of BT-549 breast cancer cell line” value was “very sensitive”. In the series with NCI-60 cancer cell lines [2], the “inhibitory activity across the 60 cancer cell lines” value is reported as “consistently inhibitory to most but not all 60 cancer cell lines” and the “number of cell lines inhibited at the mean growth percent or more” value is 28 cell lines. In addition, in series [3], the “sensitivity of U251 CNS cancer cell line” value is “very sensitive”. In addition, the “cancer cell lines inhibited in five-dose assay” value in the series with NCI-60 cancer cell lines [4] (exceptions: HCT-15 colon, NCI/ADR-RES ovarian, CAKI-1 renal) is listed as “inhibitory to all but three cancer cell lines”. For the same molecule, in the series on NCI-60 cancer cell lines [4], the “number of cancer cell lines completely killed” value was found to be 17 cancer cell lines; the “number of cancer cell lines whose growth was totally inhibited” value was determined as 29 cancer cell lines; the “TGI50, median concentration for total growth inhibition” value was not above 125.9 nM; the GI50 was not above 5.6 nM. Also, the CC50 in the series with NCI-60 cancer cell lines [4] was not above 3890 nM. In addition, the “relative potency (all parameters)” value in the series with NCI-60 cancer cell lines [4] (thailandepsin A vs thailandepsin B) was “twice as potent as thailandepsin B”.
